Data reported in patent US20260317332A1, “BICYCLIC HETEROCYCLE COMPOUNDS FOR THE TREATMENT OF CANCER” (Hoffmann-La Roche Inc., priority 2023, published 2026).

Key:
CD73 [1] = biological target: T1, CD73 (Homo sapiens, UniProt P21589); assay: Human CD73 Biochemical Assay; conditions: 0.05 nM recombinant CD73; AMP 5.56 μM final; 10 min at room temperature; LC/MS adenosine readout; read-out: Enzymatic IC50 against human CD73
T1 sequence (P21589 27-574): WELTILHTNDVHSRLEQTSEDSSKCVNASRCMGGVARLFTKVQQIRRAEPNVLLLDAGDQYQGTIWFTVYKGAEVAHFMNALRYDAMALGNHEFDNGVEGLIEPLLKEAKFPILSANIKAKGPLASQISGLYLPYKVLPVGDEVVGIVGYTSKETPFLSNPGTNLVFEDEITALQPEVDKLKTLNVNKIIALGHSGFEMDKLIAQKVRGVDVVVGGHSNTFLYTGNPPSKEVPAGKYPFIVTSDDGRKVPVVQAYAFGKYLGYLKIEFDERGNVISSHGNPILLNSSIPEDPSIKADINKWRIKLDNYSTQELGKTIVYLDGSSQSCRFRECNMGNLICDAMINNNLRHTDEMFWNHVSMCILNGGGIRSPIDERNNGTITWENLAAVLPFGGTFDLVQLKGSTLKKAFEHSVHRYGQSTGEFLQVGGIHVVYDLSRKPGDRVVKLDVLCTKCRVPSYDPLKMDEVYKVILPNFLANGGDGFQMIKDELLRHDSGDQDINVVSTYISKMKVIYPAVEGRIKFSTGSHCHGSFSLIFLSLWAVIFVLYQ
Procedure: The purpose of this assay is to identify and characterize inhibitors of human CD73 enzymatic activity. Compound serial dilution (1:3) was prepared with Echo 555 liquid handler (Labcyte) into the corresponding wells of a 384-well plate. 10 μL of enzyme working solution (containing 0.05 nM recombinant CD73 protein, 10 mM Tris pH 7.5, 100 mM NaCl, 0.01% BSA, 0.2 mM Octyl glucoside and 1 mM NaH2PO4) was added to the assay plate and incubated with compounds for 15 minutes at room temperature. After adding 15 μL of AMP working solution (Containing 10 mM Tris pH 7.5, 100 mM NaCl, 0.01% BSA, 0.2 mM Octyl glucoside, with 5.56 μM of AMP final concentration) and incubate for 10 min at room temperature. Stop the reaction by adding 75 μL of stop solution (5% TCA in H2O containing 250 nM 13C5-adenosine) to each well for 10 min incubation. After centrifugation, 75 μL of the mixture was transferred to a new 384-well plate for LC/MS analysis.
Samples from the 384-well plates, were loaded onto an autosampler deck, then injected with ADDA-LC-MS/MS. The aqueous mobile phase is 0.1% formic acid in water. The organic mobile phase is 0.1% formic acid in acetonitrile. Flow rate is maintained at 0.8 mL/minute using Shimadzu pumps. The column is ACE 5 Phenyl, 50×2.1 mm. The analysis was performed on a SCIEX triple quadrupole mass spectrometer operating in positive ion mode. The effluent from the HPLC column was directly introduced into the electrospray ionization (ESI). Multiple reaction monitoring (MRM) is used to determine analyte and internal standard (IS) responses. The MRM for adenosine is 268.1/136.1, for 13C5-Adenosine (IS) is 273.2/136.2. The data is calculated using the peak area ratio (PAR) semi-quantitative method.

CD73 [2] = biological target: T1, CD73; assay: CD73 Cellular Assay; assay type: cell-based; set-up: 40 μL of MDA-MB-231 cells (ATCC, HTB-26, breast cancer); host or cells: MDA-MB-231; conditions: MDA-MB-231 cells; 200 μM AMP working solution; 45 min at 37° C.; malachite readout; read-out: Cellular IC50 against CD73
Procedure: Compound serial dilution (1:3) was prepared with Echo 555 liquid handler (Labcyte) into the corresponding wells of a 384-well plate. 40 μL of MDA-MB-231 cells (ATCC, HTB-26, breast cancer, final concentration at 20,000 cells/mL) suspended in assay buffer (20 mM HEPES pH 7.4, 137 mM NaCl, 5.4 mM KCl, 1.3 mM CaCl2, 4.2 mM NaHCO3, 1 mg/mL glucose) were added into the corresponding wells of the plate. After incubating with compounds for 30 minutes, 40 μL of AMP working solution (200 μM AMP in assay buffer) was added into each well in the assay plate. The assay plate was then incubated in a 5% CO2 incubator (Thermo Fisher Scientific) at 37° C. for 45 min. After the reaction was completed, 50 μL of the supernatants was collected and transferred into a new 384 well plate. 10 μL of Malachite A was added to each well in the assay plate and incubated for 10 minutes. 10 μL of Malachite B was then added to each corresponding well of the plate and incubated for 30 minutes. Finally the absorbance value was read on the Envision plate reader at […]. Calculation percentage inhibition by using equation {% inhibition=100×[1−(X−MIN)/(MAX−MIN)]} where X equals to the well signal, Max equals signal of neutral control and MIN equals signal of inhibitor control.

Row | IC50 (CD73 [1]) | IC50 (CD73 [2]) | SMILES
1 | 0.07 nM | 0.66 nM | Cn1nc(O[C@H](c2cncc(OCC(F)(F)F)c2)C(F)F)c2cc(-c3c[nH]c(=O)[nH]c3=O)nnc21 (single isomer, unassigned) [Example 8A]
2 | 0.09 nM | 1.04 nM | C[C@H](Oc1nn(C)c2nnc(-c3c[nH]c(=O)[nH]c3=O)cc12)c1cc(OCC(F)(F)F)ncn1 (single isomer, unassigned) [Example 14A]
3 | 0.08 nM | 0.62 nM | Cn1nc(O[C@H](c2cc(COC(F)(F)F)ccn2)C(F)F)c2cc(-c3c[nH]c(=O)[nH]c3=O)nnc21 (single isomer, unassigned) [Example 36A]
4 | 0.13 nM | 0.87 nM | C[C@H](OC1CC1)c1cc([C@@H](Oc2nn(C)c3nnc(-c4c[nH]c(=O)[nH]c4=O)cc23)C(F)F)ccn1 (single isomer, unassigned) [Example 37A]
5 | 0.09 nM | 0.84 nM | C[C@@H](OC1CC1)c1cc([C@@H](Oc2nn(C)c3nnc(-c4c[nH]c(=O)[nH]c4=O)cc23)C(F)F)ccn1 (single isomer, unassigned) [Example 37B]
6 | 0.05 nM | 0.57 nM | C[C@H]1COC[C@@H]1Oc1cc([C@@H](Oc2nn(C)c3nnc(-c4c[nH]c(=O)[nH]c4=O)cc23)C(F)F)ccn1 (stereo in doubt) [Example 40, 5-[1-methyl-3-[(1R)-2,2-difluoro-1-[2-[(trans)-4-methyltetrahydrofuran-3-yl]oxy-4-pyridyl]ethoxy]pyrazolo[3,4-c]pyridazin-5-yl]-1H-pyrimidine-2,4-dione]
7 | 0.08 nM | 0.7 nM | Cn1nc(O[C@H](c2cccc(OCC(F)(F)F)c2)C(F)F)c2cc(-c3c[nH]c(=O)[nH]c3=O)nnc21 [Example 1, 5-[3-[(1R)-2,2-difluoro-1-[3-(2,2,2-trifluoroethoxy)phenyl]ethoxy]-1-methyl-pyrazolo[3,4-c]pyridazin-5-yl]-1H-pyrimidine-2,4-dione]
8 | 0.17 nM | 0.91 nM | Cn1nc(O[C@H](c2ccc(F)c(OCC(F)(F)F)c2)C(F)F)c2cc(-c3c[nH]c(=O)[nH]c3=O)nnc21 [Example 3, 5-[3-[(1R)-2,2-difluoro-1-[4-fluoro-3-(2,2,2-trifluoroethoxy)phenyl]ethoxy]-1-methyl-pyrazolo[3,4-c]pyridazin-5-yl]-1H-pyrimidine-2,4-dione]
9 | – | 0.52 nM | [2H]C([2H])(Oc1ccnc([C@@H](Oc2nn(C)c3nnc(-c4c[nH]c(=O)[nH]c4=O)cc23)C(F)F)c1)C(F)(F)F [Example 5, 5-[3-[(1R)-1-[4-(1,1-dideuterio-2,2,2-trifluoro-ethoxy)-2-pyridyl]-2,2-difluoro-ethoxy]-1-methyl-pyrazolo[3,4-c]pyridazin-5-yl]-1H-pyrimidine-2,4-dione]
10 | – | 0.43 nM | [2H]C([2H])([2H])n1nc(O[C@H](c2cc(OCC(F)(F)F)ccn2)C(F)F)c2cc(-c3c[nH]c(=O)[nH]c3=O)nnc21 [Example 6, 5-[3-[(1R)-2,2-difluoro-1-[4-(2,2,2-trifluoroethoxy)-2-pyridyl]ethoxy]-1-(trideuteriomethyl)pyrazolo[3,4-c]pyridazin-5-yl]-1H-pyrimidine-2,4-dione]
11 | – | 0.39 nM | CC(Oc1ccnc([C@@H](Oc2nn(C)c3nnc(-c4c[nH]c(=O)[nH]c4=O)cc23)C(F)F)c1)C(F)(F)F (stereo partly drawn) [Example 17, 5-[1-methyl-3-[(1R)-2,2-difluoro-1-[4-(2,2,2-trifluoro-1-methyl-ethoxy)-2-pyridyl]ethoxy]pyrazolo[3,4-c]pyridazin-5-yl]-1H-pyrimidine-2,4-dione]
12 | – | 0.54 nM | Cn1nc(O[C@H](c2cc(OCC3CC3(F)F)ccn2)C(F)F)c2cc(-c3c[nH]c(=O)[nH]c3=O)nnc21 (stereo partly drawn) [Example 18, 5-[1-methyl-3-[(1R)-1-[4-[(2,2-difluorocyclopropyl)methoxy]-2-pyridyl]-2,2-difluoro-ethoxy]pyrazolo[3,4-c]pyridazin-5-yl]-1H-pyrimidine-2,4-dione]
13 | – | 0.59 nM | Cn1nc(O[C@H](c2cc(OCC3(F)CC3)ccn2)C(F)F)c2cc(-c3c[nH]c(=O)[nH]c3=O)nnc21 [Example 19, 5-[3-[(1R)-2,2-difluoro-1-[4-[(1-fluorocyclopropyl)methoxy]-2-pyridyl]ethoxy]-1-methyl-pyrazolo[3,4-c]pyridazin-5-yl]-1H-pyrimidine-2,4-dione]
14 | – | 0.43 nM | Cn1nc(O[C@H](c2cc(OCC3(C#N)CC3)ccn2)C(F)F)c2cc(-c3c[nH]c(=O)[nH]c3=O)nnc21 [Example 22, 1-[[2-[(1R)-1-[5-(2,4-dioxo-1H-pyrimidin-5-yl)-1-methyl-pyrazolo[3,4-c]pyridazin-3-yl]oxy-2,2-difluoro-ethyl]-4-pyridyl]oxymethyl]cyclopropanecarbonitrile]
15 | – | 1.29 nM | Cn1nc(O[C@H](c2ccc3c(c2)N(CC(F)(F)F)CCO3)C(F)F)c2cc(-c3c[nH]c(=O)[nH]c3=O)nnc21 [Example 25, 5-[3-[(1R)-2,2-difluoro-1-[4-(2,2,2-trifluoroethyl)-2,3-dihydro-1,4-benzoxazin-6-yl]ethoxy]-1-methyl-pyrazolo[3,4-c]pyridazin-5-yl]-1H-pyrimidine-2,4-dione]
16 | – | 0.51 nM | CCOc1cc([C@@H](Oc2nn(C)c3nnc(-c4c[nH]c(=O)[nH]c4=O)cc23)C(F)F)ccn1 [Example 29, 5-[3-[(1R)-1-(2-ethoxy-4-pyridyl)-2,2-difluoro-ethoxy]-1-methyl-pyrazolo[3,4-c]pyridazin-5-yl]-1H-pyrimidine-2,4-dione]
17 | – | 0.63 nM | Cn1nc(O[C@H](c2ccnc(CN3CCC(F)(F)C3)c2)C(F)F)c2cc(-c3c[nH]c(=O)[nH]c3=O)nnc21 [Example 33, 5-[3-[(1R)-1-[2-[(3,3-difluoropyrrolidin-1-yl)methyl]-4-pyridyl]-2,2-difluoro-ethoxy]-1-methyl-pyrazolo[3,4-c]pyridazin-5-yl]-1H-pyrimidine-2,4-dione]
18 | – | 0.65 nM | [2H]C([2H])([2H])C([2H])([2H])Oc1cc([C@@H](Oc2nn(C)c3nnc(-c4c[nH]c(=O)[nH]c4=O)cc23)C(F)F)ncn1 [Example 39A, 5-[3-[(1R)-2,2-difluoro-1-[6-(1,1,2,2,2-pentadeuterioethoxy)pyrimidin-4-yl]ethoxy]-1-methyl-pyrazolo[3,4-c]pyridazin-5-yl]-1H-pyrimidine-2,4-dione]
19 | – | 0.73 nM | COC1(COc2cc([C@@H](Oc3nn(C)c4nnc(-c5c[nH]c(=O)[nH]c5=O)cc34)C(F)F)ccn2)CC1 [Example 41, 5-[3-[(1R)-2,2-difluoro-1-[2-[(1-methoxycyclopropyl)methoxy]-4-pyridyl]ethoxy]-1-methyl-pyrazolo[3,4-c]pyridazin-5-yl]-1H-pyrimidine-2,4-dione]
